Assay [1] deals with skin on the ventral side of the forearm of healthy volunteers. Description: Evaluation of the moisturization of the skin by electrical conductance (Dermodiag), randomized double-blind clinical study. Particulars: for moisturization of the skin vs placebo (Wilcoxon test): 12 months oral 50 mg daily; for Conductance: 50 mg daily oral. The class given is in vivo, human. How it is done:
(§1) The evaluation was carried out using a randomized double-blind clinical study among 280 individuals (140 men and 140 women). The inclusion criteria was as follows: healthy volunteers, of both sexes, free of any severe pathological condition and 60 to 80 years old.
(§2) The treatment consisted, for 12 months, of a daily dose of 50 mg of DHEA, taken in the morning, in the form of a breakable tablet, for half of the individuals, or of a placebo for the other half of the individuals.
The moisturization of the skin on the ventral side of the forearm is measured, blind, at the start of treatment (T0) and at the end of treatment (T12), by the same clinician, using a Dermodiag®, which is a device described in patent U.S. Pat. No. 5,001,436. The characteristics of the device are as follows: outlet impedance: 1.4 kOhms and working frequency 10 MHz. The method used is that described by J. L. Lévêque, Soc. Cosmet. Chem. (1983), 34, 419-428.
This device makes it possible to evaluate the state of moisturization (water content of the superficial layers of the epidermis) by measuring electrical conductance. The conductance is measured using an electrode applied to the skin for 10 seconds. The conductance value is the result of the mean of 6 individual measurements per measurement time.
(§3) The statistical analysis is performed using the Wilcoxon test.

Assay [2] has as its system sebaceous glands of the skin of healthy volunteers. Description: Evaluation of the production of sebum (Sebutape patches, number of spots by image analysis), randomized double-blind clinical study. Particulars: for variation in seborrhea vs placebo (Wilcoxon test): 12 months oral 50 mg daily; for Number of spots: 50 mg daily oral. The class given is in vivo, human. The protocol:
as §1, §2
The production of sebum is measured at the start of treatment (T0) and at the end of treatment (T12) according to the techniques described by A. M. Kligman et al., J. Soc. Cosmet. Chem. (1986), 37, 369-373 and by K. M. Nordstrom et al., J. Invest. Dermatol. (1986), 87, 260-264.
White adhesive microporous patches (Sebutape®, Cuderm Corporation, Dallas, Tex., USA) described in U.S. Pat. No. 4,532,937 are used; the patches are applied in a standardized manner to the skin, which has been wiped 10 times, beforehand, with cotton soaked in 70° alcohol in order to remove any fat. The lipids which are passively absorbed onto the patches are visualized by the presence of transparent spots, themselves measured by image analysis.
Each spot represents an active sebaceous gland.
as §3

Setting [3] is: men, T0 (start of treatment), DHEA group.
The mark [4] stands for this setting: men, T12 (end of 12 months treatment).
[5] abbreviates: women, T0 (start of treatment), DHEA group.
Setting [6] is: women, T12 (end of 12 months treatment).

As to `C[C@]12CC[C@H](O)CC1=CC[C@@H]1[C@@H]2CC[C@]2(C)C(=O)CC[C@@H]12` [DHEA, Dehydroepiandrosterone], the “moisturization of the skin vs placebo (Wilcoxon test)” value in assay [1] (men, p=0.03) is “significant improvement”; in assay [1] (women, p=0.44), “without significant variation in the moisturization of the skin”. Besides, the Conductance turned out to be 69 in assay [1] (setting [3]), 86 in assay [1] (setting [4]), 64 in assay [1] (setting [5]) and 84 in assay [1] (setting [6]). In assay [1] (men, treated group, T12 vs T0, 50 mg daily oral (placebo +21%, p=0.03)), the “improvement of the moisturization of the skin, measured by conductance” value was 26%. The “variation in seborrhea vs placebo (Wilcoxon test)” value in assay [2] (men, p=0.46) was “no significant variation in seborrhea”; in assay [2] (women, p=0.0001), “significant variation in seborrhea”. The Number of spots in assay [2] (setting [3]) came out at 55; in assay [2] (setting [4]), 140; in assay [2] (setting [5]), 2; in assay [2] (setting [6]), 56.

Source of the values: patent US20030050293A1, “Use of dehydroepiandrosterone, its precursors and derivatives, by oral administration, as hydrating agents with direct action” (priority 2000, published 2003).
